Test results: US5232923A, “Catechol derivatives and pharmaceutical preparations containing same” (Mitsui Toatsu Chemicals, Incorporated, priority 1988, dated 1993)

These molecules were tested on production and secretion of NGF in mouse L-M cells (assay: Promoting activity for the production and secretion of NGF in mouse L-M cells (ELISA of medium after 24 h)). Conditions: Mus musculus, 24 h; Table 1; L-M cells; sample concentration 0.2 mM; fold increase over control (1.00); read-out: NGF Increase Ratio.
Format: cell-based
Procedure: Promoting activity for the production and secretion of NGF in mouse L-M cells
The medium was cultured for 3 days at a temperature of 37° C. […] The sample of the derivative tested is contained in the medium at a prescribed concentration as illustrated in the Tables. […] Data are expressed as fold increase in NGF content of the medium over that cultivated in the absence of the derivative to be tested. […] Data are presented as the mean of four determinations. The results are illustrated in Tables 1-5.
With `CCCC(=O)NCCc1ccc(O)c(O)c1` [Compound 3] the fold induction at 200 µM was 9.64.
For `CCCCNCCCc1ccc(O)c(O)c1` [Compound 29], the fold induction at 200 µM was 8.73.
In the case of `CC(=O)NCCCc1ccc(OC(C)=O)c(OC(C)=O)c1` [Compound 17], the fold induction at 200 µM is reported as 8.64.
Work on `CC(=O)NCCc1ccc(O)c(O)c1` [Compound 1, N-Acetyl-3,4-dihydroxyphenethylamine] yielded a fold induction at 200 µM of 9.24.

Same assay, conditions: Mus musculus, 24 h; Table 2; L-M cells; sample concentration 0.2 mM; fold increase over control (1.00); read-out: NGF Increase Ratio
In the case of `CCNC(=O)Cc1ccc(OC(C)=O)c(OC(C)=O)c1` [Compound 76], the fold induction at 200 µM is reported as 5.47.
Molecule `CCNC(=O)CCCc1ccc(OC(C)=O)c(OC(C)=O)c1` [Compound 79] has a fold induction at 200 µM of 5.35.
`CCOC(=O)CCCc1ccc(OC(C)=O)c(OC(C)=O)c1` [Compound 55] was tested, and the fold induction at 200 µM was 5.82.
`CCNC(=O)Cc1ccc(O)c(O)c1` [Compound 64] gave a fold induction at 200 µM of 5.32.
`CCOC(=O)Cc1ccc(OC(C)=O)c(OC(C)=O)c1` [Compound 51] was tested, and the fold induction at 200 µM was 5.82.
For `CCOC(=O)CCc1ccc(O)c(O)c1` [Compound 35], the fold induction at 200 µM was 5.82.
Molecule `CCCCOC(=O)CCc1ccc(OC(C)=O)c(OC(C)=O)c1` [Compound 49] has a fold induction at 200 µM of 6.29.
Molecule `CCOC(=O)Cc1ccc(O)c(O)c1` [Compound 39] has a fold induction at 200 µM of 5.24.
`CC(=O)Oc1ccc(CCC(N)=O)cc1OC(C)=O` [Compound 73] showed a fold induction at 200 µM of 5.68.
Molecule `CCNC(=O)CCc1ccc(O)c(O)c1` [Compound 60] has a fold induction at 200 µM of 5.41.

Same assay, conditions: Mus musculus, 24 h; Table 5; L-M cells; 0.4 mM; fold increase over control (1.00); read-out: NGF L-M Cell Increase Ratio
`O=C(CCc1ccc(O)c(O)c1)Nc1ccccc1` [Compound 95, N-Phenyl-3,4-dihydroxyphenylpropionamide] gave a fold induction at 400 µM of 5.9.

Same assay, conditions: Table 1; L-M cells; sample concentration 0.2 mM; 24 hours; mean of four determinations; control 0.33
With `CCCC(=O)NCCc1ccc(O)c(O)c1` [Compound 3] the “NGF Concentration” value was 3.18 ng/well.
With `CCCCNCCCc1ccc(O)c(O)c1` [Compound 29] the “NGF Concentration” value was 2.88 ng/well.
In the case of `CC(=O)NCCCc1ccc(OC(C)=O)c(OC(C)=O)c1` [Compound 17], the “NGF Concentration” value is reported as 2.85 ng/well.
In the case of `CC(=O)NCCc1ccc(O)c(O)c1` [Compound 1, N-Acetyl-3,4-dihydroxyphenethylamine], the “NGF Concentration” value is reported as 3.05 ng/well.

Same assay, conditions: Table 2; L-M cells; sample concentration 0.2 mM; 24 hours; mean of four determinations; control 0.34
`CCNC(=O)Cc1ccc(OC(C)=O)c(OC(C)=O)c1` [Compound 76] was tested, and the “NGF Concentration” value was 1.88 ng/well.
In the case of `CCNC(=O)CCCc1ccc(OC(C)=O)c(OC(C)=O)c1` [Compound 79], the “NGF Concentration” value is reported as 1.82 ng/well.
In the case of `CCOC(=O)CCCc1ccc(OC(C)=O)c(OC(C)=O)c1` [Compound 55], the “NGF Concentration” value is reported as 1.98 ng/well.
`CCNC(=O)Cc1ccc(O)c(O)c1` [Compound 64] was tested, and the “NGF Concentration” value was 1.81 ng/well.
`CCOC(=O)Cc1ccc(OC(C)=O)c(OC(C)=O)c1` [Compound 51] was tested, and the “NGF Concentration” value was 1.98 ng/well.
In the case of `CCOC(=O)CCc1ccc(O)c(O)c1` [Compound 35], the “NGF Concentration” value is reported as 1.98 ng/well.
For `CCCCOC(=O)CCc1ccc(OC(C)=O)c(OC(C)=O)c1` [Compound 49], the “NGF Concentration” value was 2.14 ng/well.
`CCOC(=O)Cc1ccc(O)c(O)c1` [Compound 39] was tested, and the “NGF Concentration” value was 1.78 ng/well.
In the case of `CC(=O)Oc1ccc(CCC(N)=O)cc1OC(C)=O` [Compound 73], the “NGF Concentration” value is reported as 2.01 ng/well.
In the case of `CCNC(=O)CCc1ccc(O)c(O)c1` [Compound 60], the “NGF Concentration” value is reported as 1.84 ng/well.

Same assay, conditions: Table 5; L-M cells; 0.4 mM; 24 hours; control 0.87
`O=C(CCc1ccc(O)c(O)c1)Nc1ccccc1` [Compound 95, N-Phenyl-3,4-dihydroxyphenylpropionamide] was tested, and the “NGF L-M Cell Concentration” value was 5.13 ng/well.

What follows are molecules tested on production and secretion of NGF in mouse brain astroglial cells (assay: Promoting activity for the production and secretion of NGF in mouse brain astroglial cells (ELISA of medium after 24 h)). Conditions: Mus musculus, 24 h, Table 3, sample concentration 0.2 mM, fold increase over control (1.00), read-out: NGF Increase Ratio.
Format: cell-based
Procedure: Promoting activity for the production and secretion of NGF in mouse brain astroglial cells
The experiment was performed by inducing astroglial cells from the mouse forebrain to a culture system according to the procedures of S. Furukawa et al. which is described in Biochem. Biophys. Res. Commun., 136, 57-63 (1986).
Forebrains of 8-days old mice were dissected out and cut into small pieces. The pieces were washed with calcium- and magnesium-free phosphate-bufferedsaline (hereinafter abbreviated as PBS), treated with 0.25% trypsin containing PBS at 37° C. for 30 minutes and triturated with a Pasteur pipet to give a suspension. Cells and cell clumps were recovered by centrifugation at 200 xg for 5 minutes. They were cultured in Dulbecco modified Eagle's medium (a product of Gibco Co. hereinafter abbreviated as DMEM) containing 10% fetal calf serum, 50 μ units/ml of penicillin, and 50 μg/ml of streptomycin, for 10 to 14 days with medium changes every 3 days. After completing confluency, the cells were dissociated by trypsin treatment and recultured in new culture flasks. This procedure was repeated further twice and more. The culture became a uniform cell cluster. The cell cluster for use in this invention can be stained not less than 97% in accordance with the PAP staining method (peroxidase/[…] staining method) using anti-human glial fibrillar acidic protein (GFAP) rabbit antiserum. The cells will hereinafter be referred to as astroglial cells.
Astroglial cells were innoculated in 24-well plates having a well surface area of 2.1 cm^2 (a product of Falcon Co.) at a cell density of about 3×10^4 cells/well and cultured for 3 days in DMEM medium supplemented with 10% of fetal calf serum. After completing confluency about ([…]), the medium was changed to DMEM medium (0.5 ml/well) supplemented with 0.5% of bovine serum albumin (fraction V) and cultured for 3 days. The culture was further continued with medium changes every 3 days. After cells were practically synchronized in the quiscent stage, the medium was changed to 0.5 ml of the same medium and containing a prescribed concentration of test sample as illustrated in the Tables. NGF in the medium after cultivating for 24 hours was determined by the ELISA as mentioned above. Data are expressed as fold increase in NGF content over that in the absence of the test sample. The lower detection limit of the ELISA is 0.25 pg/ml and the NGF content of control medium was normally 1-10 pg/0.5 ml/well. Data are presented as the mean of four determinations. The results are illustrated in Tables 1-5.
Molecule `CCCC(=O)NCCc1ccc(O)c(O)c1` [Compound 3] has a fold induction at 200 µM of 3.66.
`CC(=O)NCCCc1ccc(OC(C)=O)c(OC(C)=O)c1` [Compound 17] gave a fold induction at 200 µM of 4.27.

Same assay, conditions: Mus musculus, 24 h, Table 3, sample concentration 0.4 mM, fold increase over control (1.00), read-out: NGF Increase Ratio
`CCCCNCCCc1ccc(O)c(O)c1` [Compound 29] was tested, and the fold induction at 400 µM was 4.26.
In the case of `CC(=O)NCCc1ccc(O)c(O)c1` [Compound 1, N-Acetyl-3,4-dihydroxyphenethylamine], the fold induction at 400 µM is reported as 4.94.

Same assay, conditions: Mus musculus, 24 h, Table 4, sample concentration 0.2 mM, fold increase over control, read-out: NGF Increase Ratio
With `CCNC(=O)Cc1ccc(O)c(O)c1` [Compound 64] the fold induction at 200 µM was 4.65.
With `CCOC(=O)CCc1ccc(O)c(O)c1` [Compound 35] the fold induction at 200 µM was 4.63.
`CCOC(=O)Cc1ccc(O)c(O)c1` [Compound 39] was tested, and the fold induction at 200 µM was 4.86.
In the case of `CCNC(=O)CCc1ccc(O)c(O)c1` [Compound 60], the fold induction at 200 µM is reported as 6.95.

Same assay, conditions: Mus musculus, 24 h, Table 4, sample concentration 0.4 mM, fold increase over control, read-out: NGF Increase Ratio
In the case of `CCNC(=O)Cc1ccc(OC(C)=O)c(OC(C)=O)c1` [Compound 76], the fold induction at 400 µM is reported as 4.84.
`CCNC(=O)CCCc1ccc(OC(C)=O)c(OC(C)=O)c1` [Compound 79] showed a fold induction at 400 µM of 4.57.
`CCOC(=O)CCCc1ccc(OC(C)=O)c(OC(C)=O)c1` [Compound 55] was tested, and the fold induction at 400 µM was 4.39.
With `CCOC(=O)Cc1ccc(OC(C)=O)c(OC(C)=O)c1` [Compound 51] the fold induction at 400 µM was 4.5.
Molecule `CCCCOC(=O)CCc1ccc(OC(C)=O)c(OC(C)=O)c1` [Compound 49] has a fold induction at 400 µM of 5.18.
In the case of `CC(=O)Oc1ccc(CCC(N)=O)cc1OC(C)=O` [Compound 73], the fold induction at 400 µM is reported as 7.65.

Same assay, conditions: Mus musculus, 24 h, Table 5, 0.4 mM, fold increase over control (1.00), read-out: NGF Astroglial Cell Increase Ratio
With `O=C(CCc1ccc(O)c(O)c1)Nc1ccccc1` [Compound 95, N-Phenyl-3,4-dihydroxyphenylpropionamide] the fold induction at 400 µM was 11.2.

Same assay, conditions: Table 3, sample concentration 0.2 mM, 24 hours, control 42.3
In the case of `CCCC(=O)NCCc1ccc(O)c(O)c1` [Compound 3], the “NGF Concentration” value is reported as 155.0 ng/well.
`CC(=O)NCCCc1ccc(OC(C)=O)c(OC(C)=O)c1` [Compound 17] was tested, and the “NGF Concentration” value was 180.6 ng/well.

Same assay, conditions: Table 3, sample concentration 0.4 mM, 24 hours, control 42.3
In the case of `CCCCNCCCc1ccc(O)c(O)c1` [Compound 29], the “NGF Concentration” value is reported as 180.3 ng/well.
With `CC(=O)NCCc1ccc(O)c(O)c1` [Compound 1, N-Acetyl-3,4-dihydroxyphenethylamine] the “NGF Concentration” value was 208.8 ng/well.

Same assay, conditions: Table 4, sample concentration 0.2 mM, 24 hours
`CCNC(=O)Cc1ccc(O)c(O)c1` [Compound 64] was tested, and the “NGF Concentration” value was 200.8 ng/well.
For `CCOC(=O)CCc1ccc(O)c(O)c1` [Compound 35], the “NGF Concentration” value was 200.1 ng/well.
`CCOC(=O)Cc1ccc(O)c(O)c1` [Compound 39] was tested, and the “NGF Concentration” value was 210.1 ng/well.
`CCNC(=O)CCc1ccc(O)c(O)c1` [Compound 60] was tested, and the “NGF Concentration” value was 300.4 ng/well.

Same assay, conditions: Table 4, sample concentration 0.4 mM, 24 hours
In the case of `CCNC(=O)Cc1ccc(OC(C)=O)c(OC(C)=O)c1` [Compound 76], the “NGF Concentration” value is reported as 209.1 ng/well.
With `CCNC(=O)CCCc1ccc(OC(C)=O)c(OC(C)=O)c1` [Compound 79] the “NGF Concentration” value was 197.3 ng/well.
In the case of `CCOC(=O)CCCc1ccc(OC(C)=O)c(OC(C)=O)c1` [Compound 55], the “NGF Concentration” value is reported as 189.7 ng/well.
In the case of `CCOC(=O)Cc1ccc(OC(C)=O)c(OC(C)=O)c1` [Compound 51], the “NGF Concentration” value is reported as 194.6 ng/well.
In the case of `CCCCOC(=O)CCc1ccc(OC(C)=O)c(OC(C)=O)c1` [Compound 49], the “NGF Concentration” value is reported as 223.7 ng/well.
For `CC(=O)Oc1ccc(CCC(N)=O)cc1OC(C)=O` [Compound 73], the “NGF Concentration” value was 330.6 ng/well.

Same assay, conditions: Table 5, 0.4 mM, 24 hours, control 31.8
For `O=C(CCc1ccc(O)c(O)c1)Nc1ccccc1` [Compound 95, N-Phenyl-3,4-dihydroxyphenylpropionamide], the “NGF Astroglial Cell Concentration” value was 182.6 ng/well.
